Experimental data taken from publication PMC11637438, “Chickpea NCR13 disulfide cross-linking variants exhibit profound differences in antifungal activity and modes of action” (PLOS Pathogens, 2024).
Bridge positions count the residues as written; N and C are the ends. Peptide text beside a SMILES is read from it.

What was measured:
B. cinerea [1] = assay type: cell-based, Botrytis cinerea; conditions: B. cinerea; for Minimal Inhibitory Concentration (MIC): resazurin assay in SFM, ~10^5 spores/mL, resazurin added after 48 h, three biological replicates
Method: (§1) B. cinerea strain T4 was cultured in V8 medium for 3 weeks at 25°C. Fungal spores were collected by flooding the fungal growth plates with water and scraped using a sterile spreader. The spore suspension was filtered through two layers of Miracloth, followed by centrifugation at 12,000 g for 2 minutes (min) and subsequently washed twice with sterile water. Lastly, fungal spores were resuspended in Synthetic Fungal Media (SFM). The spore suspension was adjusted to the desired spore density of about 10^5 spores/mL using a hemocytometer. Fusarium virguliforme (F. virguliforme) was grown and maintained regularly in potato dextrose agar (PDA) (Difco Laboratories) medium. Two weeks old F. virguliforme plates were used to collect spores as described above for B. cinerea followed by centrifugation and washing steps. Spores were counted using a hemocytometer and adjusted to the final concentration of 10^5 spores/mL in 2X SFM media. Sclerotinia sclerotiorum obtained from the field of pennycress in Illinois was grown on PDA medium at room temperature.
The antifungal activity of NCR13 against fungal pathogens was determined using the resazurin cell viability assay, as described previously. Briefly, 45 μL of each peptide dilution (0, 0.09, 0.1875, 0.375, 0.75, 1.5, 3, and 6 μM) was added to each well of the microtiter plate containing 45 μL (~10^5 spores/mL) of spore suspension. Three biological replicates were used for each treatment and the experiments were repeated three times. Resazurin at 0.1% (w/v) was added to each well after incubation for 48 h. Images were taken at ~24 h. The Minimum Inhibitory Concentration (MIC) for each peptide denotes the lowest concentration at which the peptide halts the growth of fungus evident through a lack of color change from blue to […]. The in vitro antifungal activity of NCR13_PFVs against S. sclerotiorum was determined using a 24-well plate assay as previously described. Mycelial plugs (1 mm in diameter) cut from the growing edge of the two day-old actively growing colony were transferred from PDA media to a series of wells containing 250 μL of SFM.

trypsin = conditions: 20-fold less (in mass) trypsin, room temperature, 1 h, read-out mass spectrometry
Fusarium virguliforme = experiment: In vitro antifungal assay, resazurin cell viability (MIC); assay type: cell-based; conditions: resazurin assay in SFM, ~10^5 spores/mL
Method: as §1
(§2) The antifungal activity of NCR13 against fungal pathogens was determined using the resazurin cell viability assay, as described previously. […] The in vitro antifungal activity of NCR13_PFVs against S. sclerotiorum was determined using a 24-well plate assay as previously described. […]

B. cinerea [2] = assay type: in vivo, Botrytis cinerea on tomato (Solanum lycopersicum); conditions: 3 μM peptide sprayed on pre-inoculated four-week-old tomato plants; 5 leaves per plant, 4 plants
Method: To test the curative antifungal activity of peptides against B. cinerea, 4-week-old pepper and tomato plants were used. Plants were first sprayed with 1 mL of B. cinerea spores (about 5 × 10^4) suspended in SFM. After 8 h of B. cinerea challenge, 2 mL of NCR13_PFV1 or NCR13_PFV2 (3.0 and 1.5 μM) were sprayed per plant. Control plants were sprayed with 2 mL of water. All plants were placed in a high humid environment for 72 h. Plants were imaged at 72 h after infection in white light and high-resolution fluorescence images were taken using CropReporter (PhenoVation). The quantification of plant health was carried out using the calculated Fv/Fm (maximum quantum yield of photosystem II) images of CropReporter showing the efficiency of photosynthesis in false colors.
For the curative assay using pepper and tomato plants, pictures of whole plants and detached leaves were taken as described above. […] Four plants were used per treatment and for each plant the disease was assessed per leaf. Besides disease severity (DS), the inhibition of disease by treatment was also evaluated. […]

Sclerotinia sclerotiorum = experiment: In vitro antifungal assay, 24-well plate with mycelial plugs (MIC); assay type: cell-based; conditions: mycelial plugs in 250 μL SFM
Method: as §1, §2

Row | Structure (SMILES) | Minimal Inhibitory Concentration (MIC) (B. cinerea [1]) [µM] | MIC in SFM+100 mM NaCl (B. cinerea [1]; synthetic fungal medium plus 100 mM NaCl) [µM] | digestion by trypsin (trypsin) | Minimal Inhibitory Concentration (MIC) (Fusarium virguliforme) [µM] | inhibition of gray mold disease, tomato (B. cinerea [2]) [%] | Minimal Inhibitory Concentration (MIC) (Sclerotinia sclerotiorum) [µM]
1 | CC[C@H](C)[C@@H]1NC(=O)[C@@H]2CSSC[C@H](NC(=O)[C@@H]3CCCN3C(=O)[C@H](CCCCN)NC(=O)[C@@H](NC(=O)[C@H](C)N)[C@@H](C)O)C(=O)N[C@@H](CCC(N)=O)C(=O)N[C@@H](CO)C(=O)N[C@@H](CC(=O)O)C(=O)N[C@@H](CCCCN)C(=O)N[C@@H](CC(=O)O)C(=O)N[C@H]3CSSC[C@H](NC(=O)[C@H](Cc4ccccc4)NC(=O)CNC(=O)[C@H](CC(N)=O)NC1=O)C(=O)N[C@@H](CCCCN)C(=O)N[C@H](C(=O)N[C@H](C(=O)N[C@@H](CCCNC(=N)N)C(=O)O)C(C)C)CSSC[C@H](NC(=O)[C@H](C)NC(=O)[C@H](Cc1ccccc1)NC(=O)[C@H](CCCCN)NC(=O)[C@H](CCCCN)NC3=O)C(=O)N[C@@H](CCCNC(=N)N)C(=O)N[C@@H](CCCCN)C(=O)N1CCC[C@H]1C(=O)N[C@@H](CCCCN)C(=O)N[C@@H](C(C)C)C(=O)N1CCC[C@H]1C(=O)N[C@@H](CCCCN)C(=O)N2 [NCR13_PFV1] (H-ATKPCQSDKDCKKFACRKPKVPKCINGFCKCVR-OH; disulfide 5-24, 11-29, 16-31) | 0.09 | > 12 | could not be digested by trypsin | 0.09 | 90 | 6.0
2 | CC[C@H](C)[C@@H]1NC(=O)[C@@H]2CSSC[C@H](NC(=O)[C@H](Cc3ccccc3)NC(=O)CNC(=O)[C@H](CC(N)=O)NC1=O)C(=O)N[C@@H](CCCCN)C(=O)N[C@H](C(=O)N[C@H](C(=O)N[C@@H](CCCNC(=N)N)C(=O)O)C(C)C)CSSC[C@H](NC(=O)[C@H](C)NC(=O)[C@H](Cc1ccccc1)NC(=O)[C@H](CCCCN)NC(=O)[C@H](CCCCN)NC(=O)[C@@H]1CSSC[C@H](NC(=O)[C@@H]3CCCN3C(=O)[C@H](CCCCN)NC(=O)[C@@H](NC(=O)[C@H](C)N)[C@@H](C)O)C(=O)N[C@@H](CCC(N)=O)C(=O)N[C@@H](CO)C(=O)N[C@@H](CC(=O)O)C(=O)N[C@@H](CCCCN)C(=O)N[C@@H](CC(=O)O)C(=O)N1)C(=O)N[C@@H](CCCNC(=N)N)C(=O)N[C@@H](CCCCN)C(=O)N1CCC[C@H]1C(=O)N[C@@H](CCCCN)C(=O)N[C@@H](C(C)C)C(=O)N1CCC[C@H]1C(=O)N[C@@H](CCCCN)C(=O)N2 [NCR13_PFV2] (H-ATKPCQSDKDCKKFACRKPKVPKCINGFCKCVR-OH; disulfide 5-11, 16-31, 24-29) | 1.5 |  |  | 1.5 | 40 | 24
